Measured values as given in article PMC3684244 (Harmful algae, 2013).
Where “and” joins values, the source holds several entries; their conditions need not be identical. Equal values may be shown once.

Key:
[1] = test system: brevenal site on voltage-sensitive sodium channels (VSSCs), rat brain synaptosomes; assay type: binding
[2] = test system: site 5 on voltage-sensitive sodium channels (VSSCs), rat brain synaptosomes; conditions: cited from earlier work
[3] = target: site 5 on voltage-sensitive sodium channels (VSSCs), rat brain synaptosomes; conditions: read-out: Ki for inhibition of [^3H]-PbTx-3 binding

Row | SMILES | Inhibition of [^3H]-brevenol binding (maximum concentration tested) [1] | also measured
1 | N=C(N)NC(=O)c1nc(Cl)c(N)nc1N [Amiloride] | No displacement (10 ! M) | –
2 | C=C/C=C\CC[C@H]1O[C@H]2CC[C@@]3(C)O[C@H]4[C@@H](O)C[C@@]5(C)O[C@@H](CC/C=C(C)/C(C)=C/C=O)[C@@H](C)C[C@H]5O[C@@H]4C[C@@H]3O[C@@H]2CC[C@@]1(C)O [Brevenal, brevenal] | – | Affinity for inhibiting brevetoxin binding relative to brevetoxins (fold lower) [2]: approximately 100 fold; Ki [3]: 98 nM; Ki ([1]; read-out: Ki for inhibition of [^3H]-brevenol binding): 75 nM and 74.8 nM
3 | CC1(C)[C@H](C(=O)O[C@H](C#N)c2cccc(Oc3ccccc3)c2)[C@@H]1C=C(Br)Br [Deltamethrin] | No displacement (100 ! M) | –
4 | NC1=N[C@H](O)[C@H]2[C@H]3O[C@]4(O)O[C@@H]([C@@H](O)[C@@]2(N1)[C@@H]4O)[C@]3(O)CO [Tetrodotoxin] | No displacement (10 ! M) | –
5 | COc1ccc(C(=O)O[C@H]2CC[C@@]3(C)[C@@H]4CC[C@H]5[C@]6(O)C[C@H](O)[C@@]7(O)[C@@H](CN8C[C@@H](C)CC[C@H]8[C@@]7(C)O)[C@]6(O)C[C@@]53O[C@]24O)cc1OC [Veratridine] | No displacement (10 ! M) | –
6 | CCN1C[C@]2(COC)[C@H](O)C[C@H](OC)[C@@]34[C@@H]5C[C@@]6(O)[C@H](OC(=O)c7ccccc7)[C@@H]5[C@@](OC(C)=O)([C@@H]([C@H](OC)[C@H]23)[C@@H]14)[C@@H](O)[C@@H]6OC [aconitine] | No displacement (10 ! M) | –
